Results: patent US12636385B2, “Selective ligands for tau aggregates” (Sentonix, Inc., priority 2018, dated 2026)
Read-outs that look alike come from different tables or passages of the source.

Assays:
[1] = Rat brain cassette exposure study; type: in vivo, Sprague Dawley rat; settings: intravenous cassette dosing; for half-life: male, Sprague Dawley, rat, brain, read-out: calculated half-life (t1/2) in rat brain tissue
Method: The in vivo pharmacokinetic characteristics of the example compounds of the invention were compared directly with the known beta-amyloid specific ligand AZD2184 (Johnson, A. E., et al, Journal of Neurochemistry (2009), Vol. 108, pages 1177-1186). Rat brain exposure to three compounds of the invention and AZD2184 was measured by intravenous cassette dosing three test compound: Example Compound 43, Example Compound 47 and Example Compound 48; and AZD2184 (Novandi Chemistry) (concentration of 0.25 μmol/mL each) using the procedure previously described in Johnson, A. E., et al, Journal of Neurochemistry (2009), Vol. 108, pages 1177-1186. 6 male Sprague Dawley rat were used in the experiments, three rats per time point (2 min and 30 min).

MAO-A [2] = molecular target: T1, MAO-A (Homo sapiens, UniProt P21397); experiment: MAO-A enzyme and uptake assay (kynuramine); type: biochemical; settings: tested at 1 μM, human placenta; for inhibition at 1 µM: read-out: % inhibition of control enzyme activity, MAO-A
T1 construct: EuroFins Pharma Discovery Service (assay service)
T1 sequence (P21397 1-527): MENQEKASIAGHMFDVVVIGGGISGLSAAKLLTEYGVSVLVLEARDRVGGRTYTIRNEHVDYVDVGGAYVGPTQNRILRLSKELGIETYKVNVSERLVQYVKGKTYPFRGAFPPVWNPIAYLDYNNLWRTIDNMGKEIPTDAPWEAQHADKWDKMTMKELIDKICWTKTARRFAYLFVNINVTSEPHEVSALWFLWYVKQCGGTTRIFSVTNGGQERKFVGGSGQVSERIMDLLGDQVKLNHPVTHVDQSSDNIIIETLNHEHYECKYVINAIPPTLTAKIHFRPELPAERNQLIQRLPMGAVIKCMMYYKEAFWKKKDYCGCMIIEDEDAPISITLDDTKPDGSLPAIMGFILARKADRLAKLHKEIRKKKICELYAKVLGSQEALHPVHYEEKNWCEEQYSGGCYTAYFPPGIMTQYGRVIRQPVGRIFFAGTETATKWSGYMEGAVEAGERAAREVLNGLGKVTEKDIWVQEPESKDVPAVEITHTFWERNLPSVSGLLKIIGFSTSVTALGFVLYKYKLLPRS
Method: (§1) MAO enzyme and uptake assays were also performed (EuroFins Pharma Discovery Service) as described in Weyler, W., et al., J. Biol. Chem. (1985), Vol. 260, pages 13199-13207, using the materials and conditions described in Table 4; and as described in Tsugeno, U., et al., J Biochem. (1995), Vol. 118, pages 974-980, using the materials and conditions described in Table 5, for Example Compound 43, Example Compound 48 and the known tau ligand THK-5117. The three compounds were tested at 1 μM. Compound enzyme/uptake inhibition effect was calculated as a % inhibition of control enzyme activity.
(§2) The results of the enzyme and uptake assays are expressed as a percent inhibition of control specific activity obtained in the presence of the test compounds: […]

0N4R Tau fibrils = molecular target: T2, 0N4R Tau fibrils (Homo sapiens, UniProt P10636); experiment: In vitro competitive binding to 0N4R tau fibrils in the presence of [^3H]-Example Compound 68 (FIG. 1)
T2 construct: made in house
T2 sequence (P10636 1-383 isoform P10636-6): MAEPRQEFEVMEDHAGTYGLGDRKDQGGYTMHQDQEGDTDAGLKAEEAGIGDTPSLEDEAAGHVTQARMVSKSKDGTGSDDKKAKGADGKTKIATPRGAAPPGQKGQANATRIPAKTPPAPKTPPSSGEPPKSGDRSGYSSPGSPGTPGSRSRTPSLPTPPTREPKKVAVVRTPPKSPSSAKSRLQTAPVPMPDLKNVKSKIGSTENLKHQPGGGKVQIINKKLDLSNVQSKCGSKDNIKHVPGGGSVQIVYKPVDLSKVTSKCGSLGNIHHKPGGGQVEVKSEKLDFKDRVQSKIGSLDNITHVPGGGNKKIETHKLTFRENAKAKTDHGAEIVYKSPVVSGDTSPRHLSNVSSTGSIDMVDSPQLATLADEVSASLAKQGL

MAO-A [3] = molecular target: T3, MAO-A (Rattus norvegicus, UniProt P21396); experiment: MAO-A binding assay ([^3H]-Ro41-1049); settings: tested at 1 μM, rat cerebral cortex; for inhibition at 1 µM: read-out: % inhibition of control specific binding, MAO-A binding assay
T3 construct: tissue EuroFins Pharma Discovery Service (assay service); host or cells: rat cerebral cortex (own knowledge of the vendor's assay)
T3 sequence (P21396 1-526): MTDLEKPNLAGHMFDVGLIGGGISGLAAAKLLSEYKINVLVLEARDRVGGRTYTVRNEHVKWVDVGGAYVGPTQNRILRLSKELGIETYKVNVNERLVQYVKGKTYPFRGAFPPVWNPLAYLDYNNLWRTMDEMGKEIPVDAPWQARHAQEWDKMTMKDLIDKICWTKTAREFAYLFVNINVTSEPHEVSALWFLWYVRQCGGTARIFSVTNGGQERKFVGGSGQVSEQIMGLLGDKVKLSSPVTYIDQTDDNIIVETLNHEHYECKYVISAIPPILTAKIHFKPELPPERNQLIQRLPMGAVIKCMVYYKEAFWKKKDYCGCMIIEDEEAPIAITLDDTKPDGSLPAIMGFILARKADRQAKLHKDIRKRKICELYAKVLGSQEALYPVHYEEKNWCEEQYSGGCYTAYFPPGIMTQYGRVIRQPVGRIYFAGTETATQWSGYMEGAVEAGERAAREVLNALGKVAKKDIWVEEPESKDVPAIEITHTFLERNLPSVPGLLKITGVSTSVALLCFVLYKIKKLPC
Method: A monoamine oxidase inhibitor (MAO) binding assay for MAO-A was performed (EuroFins Pharma Discovery Service) for Example Compound 43, Example Compound 48 and the known tau ligand THK-5117. The three compounds were tested at 1 μM. Compound binding was calculated as a % inhibition of the binding of the selective MAO-A inhibitor [^3H]-Ro41-1049 for MAO-A binding.
The MAO-A binding assay was carried our as described in Cesura, A. M., et al, Mol. Phamacol. (1990), Vol 37, pages 358-366, using the materials and conditions described in Table 3.
The results of the MAO-A binding assay are expressed as a percent inhibition of control specific binding obtained in the presence of the test compounds: […]

MAO-B = molecular target: T4, MAO-B (Homo sapiens, UniProt P27338); experiment: MAO-B recombinant enzyme assay (D-Luciferin derivative); type: biochemical; settings: tested at 1 μM; for inhibition at 1 µM: read-out: % inhibition of control enzyme activity, MAO-B
T4 construct: EuroFins Pharma Discovery Service (assay service)
T4 sequence (P27338 1-520): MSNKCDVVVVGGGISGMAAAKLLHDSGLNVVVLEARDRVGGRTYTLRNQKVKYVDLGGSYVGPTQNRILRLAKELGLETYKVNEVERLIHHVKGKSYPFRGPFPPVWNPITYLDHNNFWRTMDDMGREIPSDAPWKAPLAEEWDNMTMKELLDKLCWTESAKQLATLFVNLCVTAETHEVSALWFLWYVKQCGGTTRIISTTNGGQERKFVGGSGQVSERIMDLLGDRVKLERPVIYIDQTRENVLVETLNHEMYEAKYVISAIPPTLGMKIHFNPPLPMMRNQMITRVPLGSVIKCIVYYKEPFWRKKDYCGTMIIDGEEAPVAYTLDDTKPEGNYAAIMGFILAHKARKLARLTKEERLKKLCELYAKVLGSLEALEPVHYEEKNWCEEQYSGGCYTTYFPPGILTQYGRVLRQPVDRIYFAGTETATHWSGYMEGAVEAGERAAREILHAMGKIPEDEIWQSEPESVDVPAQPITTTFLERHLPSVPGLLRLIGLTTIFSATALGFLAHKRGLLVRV
Method: as §1, §2

[4] = literature value; cited from earlier work
[5] = cited from earlier work

With `OCC1CCN(c2ccc(-c3cc4cc(O)ccc4[nH]3)c(F)n2)CC1` [Example Compound 48, 2-{2-Fluoro-6-[4-(hydroxymethyl)piperidin-1-yl]pyridin-3-yl}-1H-indol-5-ol] the “clearance from normal rat brain tissue” value ([1]; 2 min and 30 min) was “rapidly cleared”, the half-life ([1]; samples at 2 min and 30 min) was 8.21 min and the inhibition at 1 µM (MAO-A [2]) was less than 25%. The “tau binding site shared (competition with [^3H]-Example Compound 68)” value (0N4R Tau fibrils) was “share the same binding site”, the inhibition at 1 µM (MAO-A [3]) was less than 25% and the inhibition at 1 µM (MAO-B) was less than 25%.
In the case of `CNc1ccc(-c2nc3ccc(O)cc3s2)cn1` [AZD2184, reference compound], the “t1/2 reported in Table 3 of Johnson, A. E., et al” value [4] is given as 6.8 min and the “calculated half-life (t1/2) in rat brain tissue” value ([1]; samples at 2 min and 30 min) is given as 6.65 min.
`NC(=O)c1ccc2nc(-c3cnc(N4CCC(CCF)CC4)nc3)sc2c1` [Example Compound 43, 2-{2-[4-(2-Fluoroethyl)piperidin-1-yl]pyrimidin-5-yl}-1,3-benzothiazole-6-carboxamide] gave a half-life ([1]; samples at 2 min and 30 min) of 379 min, an inhibition at 1 µM (MAO-A [2]) of less than 25% and an inhibition at 1 µM (MAO-A [3]) of less than 25%. The inhibition at 1 µM (MAO-B) was less than 25%.
In the case of `CNc1ccc(/C=C/C=C/c2nc3ccc(O)cc3s2)cn1` [^11C-PBB3], the “radiochemical purity after exposure to fluorescent light” value ([5]; at 1 min after exposure) is given as 77% and the “radiochemical purity after exposure to fluorescent light” value ([5]; from 10 to 60 min) is given as “approximately 50%”.
For `CNc1ccc(-c2ccc3cc(OCC(O)CF)ccc3n2)cc1` (centres unmarked) [THK-5117, reference compound], the “% inhibition of control enzyme activity, MAO-A” value (MAO-A [2]) was no more than 50%, the “% inhibition of control specific binding, MAO-A binding assay” value (MAO-A [3]) was no more than 50% and the “% inhibition of control enzyme activity, MAO-B” value (MAO-B) was no more than 50%.
